The nature of the first data set: CHI Log D procedure. The class given is physicochemical. The following applies: pH 7.4.
For the molecule `CC(=O)NC(C)(C)C(=O)N[C@@H](CC(=O)O)C(=O)N[C@@H](C)C(=O)N[C@]1(C)CCCCCCC=CCOC(=O)N2CC[C@@](C(=O)N[C@@H](Cc3ccccc3)C(=O)N[C@@H](Cc3c[nH]c4ccccc34)C(=O)NC(C)(C)C(N)=O)(C2)NC(=O)[C@H](C(C)C)NC(=O)[C@H](Cc2ccccc2)NC(=O)[C@H](C)NC(=O)[C@H](C)NC(=O)[C@H](CCC(=O)O)NC(=O)[C@H](CC(=O)O)NC1=O` [I-159, Ac-Aib-Asp-Ala-R8-Asp-Glu-Ala-Ala-Phe-Val-PyrS-Phe-Trp-Aib-NH2], the “CHI Log D” value is on record as 1.452.

As for `CC(=O)N[C@@H](Cc1ccccc1)C(=O)N[C@@H](CC(=O)O)C(=O)N[C@@H](C)C(=O)N[C@]1(C)CCCCCCC=CCOC(=O)N2CC[C@@](C(=O)N[C@@H](Cc3ccccc3)C(=O)N[C@@H](Cc3c[nH]c4ccccc34)C(=O)N[C@@H](CCC(N)=O)C(N)=O)(C2)NC(=O)[C@H](CO)NC(=O)[C@H](Cc2ccccc2)NC(=O)[C@H](C)NC(=O)[C@H](C)NC(=O)[C@H](CC(=O)O)NC(=O)[C@H](CC(=O)O)NC1=O` [I-163, Ac-Phe-Asp-Ala-R8-Asp-Asp-Ala-Ala-Phe-Ser-PyrS-Phe-Trp-Gln-NH2], the “CHI Log D” value came to 1.29.

For the molecule `CC(=O)N[C@@H](Cc1ccccc1)C(=O)N[C@@H](CC(=O)O)C(=O)N[C@@H](C)C(=O)N[C@]1(C)CCCCCCC=CCOC(=O)N2CC[C@@](C(=O)N[C@@H](Cc3ccccc3)C(=O)N[C@@H](Cc3c[nH]c4ccccc34)C(=O)N[C@@H](CCC(N)=O)C(N)=O)(C2)NC(=O)[C@H](CO)NC(=O)[C@H](Cc2ccccc2)NC(=O)[C@H](C)NC(=O)[C@H](C)NC(=O)[C@H](CC(=O)O)NC(=O)[C@H](CC(=O)O)NC1=O` [I-164, Ac-Phe-Asp-Ala-R8-Asp-Asp-Ala-Ala-Phe-Ser-PyrS-Phe-Trp-Gln-NH2], the “CHI Log D” value is on record as 1.359.

Regarding `CC(=O)N1CCC[C@]12CC=CCCCC1(CCCC=CCCCCCC[C@@](C)(C(=O)N[C@@H](Cc3ccccc3)C(=O)N[C@@H](Cc3c[nH]c4ccc(C5CC5)cc34)C(=O)N[C@@H](CCC(N)=O)C(N)=O)NC(=O)[C@H](C(C)C)NC(=O)[C@H](Cc3ccccc3)NC(=O)[C@H](C)NC(=O)[C@H](C)NC(=O)[C@H](CCC(=O)O)NC(=O)[C@H](CC(=O)O)NC1=O)NC(=O)[C@H](C)NC(=O)[C@H](CC(=O)O)NC2=O` (stereo partly drawn) [I-170, Ac-PL3-Asp-Ala-B5-Asp-Glu-Ala-Ala-Phe-Val-S8-Phe-5CpW-Gln-NH2], the “CHI Log D” value was 2.138.

With `CC(=O)N1CCC[C@]12CC=CCCCC1(CCCC=CCCCCCC[C@@](C)(C(=O)N[C@@H](Cc3ccccc3)C(=O)N[C@@H](Cc3c[nH]c4ccccc34)C(=O)N[C@@H](CCC(N)=O)C(N)=O)NC(=O)[C@H](C(C)C)NC(=O)[C@H](Cc3ccccc3)NC(=O)[C@H](C)NC(=O)[C@H](C)NC(=O)[C@H](CCC(=O)O)NC(=O)[C@H](CCc3ccccc3)NC1=O)NC(=O)[C@H](C)NC(=O)[C@H](CC(=O)O)NC2=O` (stereo partly drawn) [I-196, Ac-PL3-Asp-Ala-B5-hPhe-Glu-Ala-Ala-Phe-Val-S8-Phe-Trp-Gln-NH2], the “CHI Log D” value is on record as 3.711.

Staying with this data set, now noted: pH 7.4, CHI Log D.
Turning to `CC(=O)N1CCC[C@]12CC=CCCCC1(CCCC=CCCCCCC[C@@](C)(C(=O)N[C@@H](Cc3c(F)c(F)c(F)c(F)c3F)C(=O)N[C@@H](Cc3c[nH]c4ccccc34)C(=O)N[C@@H](CCC(N)=O)C(N)=O)NC(=O)[C@H](C(C)C)NC(=O)[C@H](Cc3ccccc3)NC(=O)[C@H](C)NC(=O)[C@H](C)NC(=O)[C@H](CCC(=O)O)NC(=O)[C@H](CC(=O)O)NC1=O)NC(=O)[C@H](C)NC(=O)[C@H](CC(=O)O)NC2=O` (stereo partly drawn) [I-183, Ac-PL3-Asp-Ala-B5-Asp-Glu-Ala-Ala-Phe-Val-S8-Pff-Trp-Gln-NH2], the chromatographic logD worked out at 2.21.

Molecule `CC(=O)N1CCC[C@]12CC=CCCCC1(CCCC=CCCCCCC[C@@](C)(C(=O)N[C@@H](Cc3ccccc3)C(=O)N[C@@H](Cc3c[nH]c4ccccc34)C(=O)N[C@@H](CCC(N)=O)C(N)=O)NC(=O)[C@H](C(C)C)NC(=O)[C@H](Cc3ccccc3)NC(=O)[C@H](C)NC(=O)[C@H](C)NC(=O)[C@H](CCc3ccccc3)NC(=O)[C@H](CC(=O)O)NC1=O)NC(=O)[C@H](C)NC(=O)[C@H](CC(=O)O)NC2=O` (stereo partly drawn) [I-195, Ac-PL3-Asp-Ala-B5-Asp-hPhe-Ala-Ala-Phe-Val-S8-Phe-Trp-Gln-NH2] returned a chromatographic logD of 2.98.

`CC(=O)N1CCC[C@]12CC=CCCCC1(CCCC=CCCCCCC[C@@](C)(C(=O)N[C@@H](Cc3ccccc3)C(=O)N[C@@H](Cc3c[nH]c4ccccc34)C(=O)N[C@@H](CCC(N)=O)C(N)=O)NC(=O)[C@H](C(C)C)NC(=O)[C@H](Cc3ccccc3)NC(=O)[C@H](C)NC(=O)[C@H](C)NC(=O)[C@H](CCC(=O)O)NC(=O)[C@H](CC(=O)O)NC1=O)NC(=O)[C@H](C)NC(=O)[C@H](Cc1ccc(O)cc1)NC2=O` (stereo partly drawn) [I-202, Ac-PL3-Tyr-Ala-B5-Asp-Glu-Ala-Ala-Phe-Val-S8-Phe-Trp-Gln-NH2] gave a chromatographic logD of 2.62.

For the molecule `CC(=O)N1CCC[C@]12CC=CCCCC1(CCCC=CCCCCCC[C@@](C)(C(=O)N[C@@H](Cc3ccccc3)C(=O)N[C@@H](Cc3c[nH]c4ccccc34)C(=O)N[C@@H](CCC(N)=O)C(N)=O)NC(=O)[C@H](C(C)C)NC(=O)[C@H](Cc3ccccc3)NC(=O)[C@H](C)NC(=O)[C@H](C)NC(=O)[C@H](CCC(=O)O)NC(=O)[C@H](CC(=O)O)NC1=O)NC(=O)[C@H](C)NC(=O)[C@H](Cc1cccc(C)c1)NC2=O` (stereo partly drawn) [I-203, Ac-PL3-3MeF-Ala-B5-Asp-Glu-Ala-Ala-Phe-Val-S8-Phe-Trp-Gln-NH2], the chromatographic logD worked out at 3.09.

Regarding `CC(=O)N1CCC[C@]12CC=CCCCC1(CCCC=CCCCCCC[C@@](C)(C(=O)N[C@@H](Cc3ccccc3)C(=O)N[C@@H](Cc3c[nH]c4ccccc34)C(=O)N[C@@H](CCC(N)=O)C(N)=O)NC(=O)[C@H](C(C)C)NC(=O)[C@H](Cc3ccccc3)NC(=O)[C@H](C)NC(=O)[C@H](C)NC(=O)[C@H](CCC(=O)O)NC(=O)[C@H](CC(=O)O)NC1=O)NC(=O)[C@H](C)NC(=O)[C@H](Cc1cccc(F)c1)NC2=O` (stereo partly drawn) [I-204, Ac-PL3-3FF-Ala-B5-Asp-Glu-Ala-Ala-Phe-Val-S8-Phe-Trp-Gln-NH2], the chromatographic logD came out at 2.98.

Molecule `CCCC[C@@H]1NC(=O)C2(CCCC=CCCCCCC[C@@](C)(C(=O)N[C@@H](Cc3ccccc3)C(=O)N[C@@H](Cc3c[nH]c4ccccc34)C(=O)N[C@@H](CCC(N)=O)C(N)=O)NC(=O)[C@H](C(C)C)NC(=O)[C@H](Cc3ccccc3)NC(=O)[C@H](C)NC(=O)[C@H](C)NC(=O)[C@H](CCC(=O)O)NC1=O)CCCC=CC[C@]1(CCCN1C(C)=O)C(=O)N[C@@H](CC(=O)O)C(=O)N[C@@H](C)C(=O)N2` (stereo partly drawn) [I-205, Ac-PL3-Asp-Ala-B5-nLeu-Glu-Ala-Ala-Phe-Val-S8-Phe-Trp-Gln-NH2] returned a chromatographic logD of 3.84.

`CC(=O)N1CCC[C@]12CC=CCCCC1(CCCC=CCCCCCC[C@@](C)(C(=O)N[C@@H](Cc3ccccc3)C(=O)N[C@@H](Cc3c[nH]c4ccccc34)C(=O)N[C@@H](CCC(N)=O)C(N)=O)NC(=O)[C@H](C(C)C)NC(=O)[C@H](Cc3ccccc3)NC(=O)[C@H](C)NC(=O)[C@H](C)NC(=O)[C@H](CCC(=O)O)NC(=O)[C@H](Cc3cccnc3)NC1=O)NC(=O)[C@H](C)NC(=O)[C@H](CC(=O)O)NC2=O` (stereo partly drawn) [I-213, Ac-PL3-Asp-Ala-B5-3pyrA-Glu-Ala-Ala-Phe-Val-S8-Phe-Trp-Gln-NH2] returned a chromatographic logD of 2.82.

`CC(=O)N1CCC[C@]12CC=CCCCC1(CCCC=CCCCCCC[C@@](C)(C(=O)N[C@@H](Cc3ccccc3)C(=O)N[C@@H](Cc3c[nH]c4ccccc34)C(=O)N[C@@H](CCC(N)=O)C(N)=O)NC(=O)[C@H](C(C)C)NC(=O)[C@H](Cc3ccccc3)NC(=O)[C@H](C)NC(=O)[C@H](C)NC(=O)[C@H](CCC(=O)O)NC(=O)[C@H](Cc3ccncc3)NC1=O)NC(=O)[C@H](C)NC(=O)[C@H](CC(=O)O)NC2=O` (stereo partly drawn) [I-214, Ac-PL3-Asp-Ala-B5-4pyrA-Glu-Ala-Ala-Phe-Val-S8-Phe-Trp-Gln-NH2] showed a chromatographic logD of 2.7.

As for `CC(=O)N1CCC[C@]12CC=CCCCC1(CCCC=CCCCCCC[C@@](C)(C(=O)N[C@@H](Cc3ccccc3)C(=O)N[C@@H](Cc3c[nH]c4ccccc34)C(=O)N[C@@H](CCC(N)=O)C(N)=O)NC(=O)[C@H](C(C)C)NC(=O)[C@H](Cc3ccccc3)NC(=O)[C@H](C)NC(=O)[C@H](C)NC(=O)[C@H](CCC(=O)O)NC(=O)[C@H](Cc3ccccn3)NC1=O)NC(=O)[C@H](C)NC(=O)[C@H](CC(=O)O)NC2=O` (stereo partly drawn) [I-230, Ac-PL3-Asp-Ala-B5-2pyrA-Glu-Ala-Ala-Phe-Val-S8-Phe-Trp-Gln-NH2], the chromatographic logD came to 2.98.

As to `CC(=O)N1CCC[C@]12CC=CCCCC1(CCCC=CCCCCCC[C@@](C)(C(=O)N[C@@H](Cc3ccccc3)C(=O)N[C@@H](Cc3c[nH]c4ccccc34)C(=O)N[C@@H](CCC(N)=O)C(N)=O)NC(=O)[C@H](C(C)C)NC(=O)[C@H](Cc3ccccc3)NC(=O)[C@H](C)NC(=O)[C@H](C)NC(=O)[C@H](Cc3cccc4ccccc34)NC(=O)[C@H](CC(=O)O)NC1=O)NC(=O)[C@H](C)NC(=O)[C@H](CC(=O)O)NC2=O` (stereo partly drawn) [I-234, Ac-PL3-Asp-Ala-B5-Asp-1NapA-Ala-Ala-Phe-Val-S8-Phe-Trp-Gln-NH2], the chromatographic logD was 3.03.

As for `CC(=O)N1CCC[C@]12CC=CCCCC1(CCCC=CCCCCCC[C@@](C)(C(=O)N[C@@H](Cc3ccccc3)C(=O)N[C@@H](Cc3c[nH]c4ccccc34)C(=O)N[C@@H](CCC(N)=O)C(N)=O)NC(=O)[C@H](C(C)C)NC(=O)[C@H](Cc3ccccc3)NC(=O)[C@H](C)NC(=O)[C@H](C)NC(=O)[C@H](Cc3ccc(-c4ccccc4)cc3)NC(=O)[C@H](CC(=O)O)NC1=O)NC(=O)[C@H](C)NC(=O)[C@H](CC(=O)O)NC2=O` (stereo partly drawn) [I-235, Ac-PL3-Asp-Ala-B5-Asp-Bip-Ala-Ala-Phe-Val-S8-Phe-Trp-Gln-NH2], the chromatographic logD stood at 3.2.

`CC(=O)N1CCC[C@]12CC=CCCCC1(CCCC=CCCCCCC[C@@](C)(C(=O)N[C@@H](Cc3ccccc3)C(=O)N[C@@H](Cc3c[nH]c4ccccc34)C(=O)N[C@@H](CCC(N)=O)C(N)=O)NC(=O)[C@H](C(C)C)NC(=O)[C@H](Cc3ccccc3)NC(=O)[C@H](C)NC(=O)[C@H](C)NC(=O)[C@H](Cc3ccc(F)cc3)NC(=O)[C@H](CC(=O)O)NC1=O)NC(=O)[C@H](C)NC(=O)[C@H](CC(=O)O)NC2=O` (stereo partly drawn) [I-258, Ac-PL3-Asp-Ala-B5-Asp-4FF-Ala-Ala-Phe-Val-S8-Phe-Trp-Gln-NH2]: the chromatographic logD came to 2.89.

These data come from patent US20240116985A1, “STAPLED PEPTIDES AND METHODS THEREOF” (priority 2020, published 2024).
